The structures appear in SMILES notation.

The target in this assay is p38 MAP-kinase (Homo sapiens, UniProt Q16539). The experiment in a line: Enzymatic assay: inhibition of p38 MAP-kinase (phosphorylation of GST-tagged ATF2, chemoluminescence bead readout). Type of assay: biochemical. As to conditions: inhibitor 1 μM; activated p38 MAP-kinase 1 nM; 4 h preincubation; ATP 100 μM; ATF2 10 nM; read-out: % inhibitory effect at 1 μM. The procedure, abridged: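 Activated human p38 MAP-kinase (1 nM) preincubated 4 h at ambient temperature with compound at 1 μM in HEPES pH 7, MgCl2, DTT, Tween20. Then reacted 1 h with GST-ATF2 (10 nM) and ATP (100 μM). Phospho-ATF2 read by bead chemoluminescence at 520-620 nm, given as % inhibition at 1 μM versus kinase-free background.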
p38 MAP-kinase, sequence (Q16539 whole entry): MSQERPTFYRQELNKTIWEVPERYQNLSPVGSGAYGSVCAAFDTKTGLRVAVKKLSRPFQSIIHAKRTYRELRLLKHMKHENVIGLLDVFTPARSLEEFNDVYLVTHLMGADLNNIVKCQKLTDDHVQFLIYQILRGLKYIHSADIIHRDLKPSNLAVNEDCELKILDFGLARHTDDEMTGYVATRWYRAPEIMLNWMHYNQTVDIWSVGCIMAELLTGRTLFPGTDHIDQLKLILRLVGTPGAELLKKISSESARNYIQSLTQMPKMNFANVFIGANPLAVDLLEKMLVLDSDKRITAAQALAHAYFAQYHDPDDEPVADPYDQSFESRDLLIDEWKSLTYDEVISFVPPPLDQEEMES
For `COc1c(NC(=O)c2ccc(C)c(Oc3cc(CN4CCOCC4)ncn3)c2)cc(C(C)(C)C)cc1NS(C)(=O)=O` [Example 8, N-(5-tert-butyl-3-methanesulphonylamino-2-methoxy-phenyl)-4-methyl-3-(6-morpholin-4-ylmethyl-pyrimidin-4-yloxy)-benzamide], the inhibition at 1 µM was 95%.
Take `COc1c(NC(=O)c2ccc(C)c(Oc3ccnc(NC4CCNC4)n3)c2)cc(C(C)(C)C)cc1NS(C)(=O)=O` (stereo not drawn) [5(23), N-(5-tert-butyl-3-methanesulphonylamino-2-methoxy-phenyl)-4-methyl-3-[2-(pyrrolidin-3-ylamino)-pyrimidin-4-yloxy]-benzamide]: the inhibition at 1 µM came to 98.3%.
On to `COc1c(NC(=O)c2ccc(C)c(Oc3ccnc(CC4CCNCC4)c3)c2)cc(C(F)(F)F)cc1NS(C)(=O)=O` [5(49), N-(3-methanesulphonylamino-2-methoxy-5-trifluoromethyl-phenyl)-4-methyl-3-(2-piperidin-4-ylmethyl-pyridin-4-yloxy)-benzamide], for which the inhibition at 1 µM was determined as 99.2%.
Next, `COc1c(NC(=O)c2ccc(C)c(Oc3ccnc(CC4CCN(C)CC4)n3)c2)cc(C(C)(C)C)cc1NS(C)(=O)=O` [9(1), N-(5-tert-butyl-3-methanesulphonylamino-2-methoxy-phenyl)-4-methyl-3-[2-(1-methyl-piperidin-4-ylmethyl)-pyrimidin-4-yloxy]-benzamide]: 99.9%; `COc1c(NC(=O)c2ccc(Cl)c(Oc3cc(NC4CCN(C)CC4)ncn3)c2)cc(C(C)(C)C)cc1NS(C)(=O)=O` [4(14), N-(5-tert-butyl-3-methanesulphonylamino-2-methoxy-phenyl)-4-chloro-3-[6-(1-methyl-piperidin-4-ylamino)-pyrimidin-4-yloxy]-benzamide]: 99.4%; `COc1c(NC(=O)c2cc(C)cc(Oc3ccnc(CN4CCN(C)CC4)n3)c2)cc(C(C)(C)C)cc1NS(C)(=O)=O` [8(28), N-(5-tert-butyl-3-methanesulphonylamino-2-methoxy-phenyl)-3-methyl-5-[2-(4-methyl-piperazin-1-ylmethyl)-pyrimidin-4-yloxy]-benzamide]: 81.8%.
For `COc1c(NC(=O)c2ccc(Cl)c(Oc3cc(CN(C)CCN(C)C)ncn3)c2)cc(C(C)(C)C)cc1NS(C)(=O)=O` [8(32), N-(5-tert-butyl-3-methanesulphonylamino-2-methoxy-phenyl)-4-chloro-3-(6-{[(2-dimethylamino-ethyl)-methyl-amino]-methyl}-pyrimidin-4-yloxy)-benzamide] the value was 92.6%; for `COc1c(NC(=O)c2ccc(Cl)c(Oc3ccnc(CN(C)CCN(C)C)n3)c2)cc(C(C)(C)C)cc1NS(C)(=O)=O` [8(36), N-(5-tert-butyl-3-methanesulphonylamino-2-methoxy-phenyl)-4-chloro-3-(2-{[(2-dimethylamino-ethyl)-methyl-amino]-methyl}-pyrimidin-4-yloxy)-benzamide], 82.6%; for `COc1c(NC(=O)c2ccc(C)c(Oc3ccnc(CN4CCNCC4)c3)c2)cc(C(C)(C)C)cc1NS(C)(=O)=O` [5(9), N-(5-tert-butyl-3-methanesulphonylamino-2-methoxy-phenyl)-4-methyl-3-(2-piperazin-1-ylmethyl-pyridin-4-yloxy)-benzamide x trifluoroacetic acid], 98.5%.
